pIC50: −log10 of the molar value.
Tests used:
Format in all cases: cell-based
[1] = target: T1, BCL-XL (Homo sapiens, UniProt Q07817); test: BCL-XL degradation assay, western blot in MOLT-4 cells, 16 h; settings: western blot, MOLT-4 cells, 16 h; for Dmax: read-out: Bcl-xL WB in MOLT-4 degradation 16 h: Average Dmax %; for DC50: read-out: Bcl-xL WB in MOLT-4 degradation 16 h: Mean external-Abs DC50
T1 construct: endogenous in cells; host or cells: MOLT-4
How it was run: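 MOLT-4 cells treated with compounds at 0.02-10 μM final for 16 hr at 37° C; lysates analysed by western blot with anti-BCL-xL, beta-actin and GAPDH loading controls, infrared imaging and densitometry; DC50 and Dmax % reported as letter codes.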

[2] = target: T1, BCL-XL; test: Bcl-xL ELISA degradation in MOLT-4 cells, 6 h; settings: for DC50: read-out: Bcl-xL ELISA in MOLT-4 degradation 6 h: Mean external-Abs DC50
Procedure: The letter codes for BCL-XL DC50 include: A (<0.01 μM); B (0.01-0.1 μM); C (>[…]); D (>0.5-1.0 μM); and E (>1.0 μM). The letter codes for Dmax % include A (>75%); B (50 to 75%); C (<50%).

[3] = test system: MOLT-4 cells; test: CTG (CellTiter-Glo) cell viability assay, MOLT-4; settings: Homo sapiens, MOLT-4, 72 h, 3 day incubation, read-out: CTG Cell Viability Assay - MOLT-4 3 day: Average external-IC50
How it was run: (§1)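 Luminescence from CellTiter-Glo, read after 3 days of compound exposure at 37 °C, gave viability; IC50 values came from three-parameter logistic curves. Cells were plated at 10,000 per well and dosed over nine 1:3 steps topping at 10 μM.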

[4] = test system: Caki-2 cells; test: CTG (CellTiter-Glo) cell viability assay, Caki-2; settings: Homo sapiens, 72 h, 3 day incubation, read-out: CTG Chempartner - Caki-2 3 day: Average external-IC50
How it was run: as §1

T1 sequence (Q07817 whole entry): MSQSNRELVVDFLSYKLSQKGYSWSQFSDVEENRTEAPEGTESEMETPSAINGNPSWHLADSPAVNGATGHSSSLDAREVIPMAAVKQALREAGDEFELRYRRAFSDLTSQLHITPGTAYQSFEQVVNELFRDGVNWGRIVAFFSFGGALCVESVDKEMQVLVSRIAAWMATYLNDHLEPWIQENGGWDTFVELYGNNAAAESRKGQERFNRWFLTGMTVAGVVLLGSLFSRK

Dmax [1] [%] | DC50 [1] [nM] | Dmax [2] [%] | DC50 [2] [nM] | pIC50 [3] | Compound | pIC50 [4]
> 75 | < 10 | 50 to 75 | 10 to 100 | > 7.00 | Cc1ncsc1-c1ccc(CNC(=O)[C@@H]2C[C@@H](O)CN2C(=O)[C@@H](NC(=O)C2(F)CC2)C(C)(C)C)c(OCCN2CCN(CC[C@H](CSc3ccccc3)Nc3ccc(S(=O)(=O)NC(=O)c4ccc(N5CCN(CC6=C(c7ccc(Cl)cc7)CCC(C)(C)C6)CC5)cc4)cc3S(=O)(=O)C(F)(F)F)CC2)c1 [I-394] | < 5.00
> 75 | 10 to 100 | 50 to 75 | 10 to 100 | 6.00 to 7.00 | Cc1ncsc1-c1ccc(CNC(=O)[C@@H]2C[C@@H](O)CN2C(=O)[C@@H](NC(=O)C2(F)CC2)C(C)(C)C)c(OCCCCCS(=O)(=O)NC(=O)c2nc(N3CCc4cccc(C(=O)Nc5nc6cccnc6s5)c4C3)ccc2-c2cnn(CC3CCCCC3)c2C)c1 [I-187] | < 5.00
> 75 | < 10 | < 50 | 10 to 100 | > 7.00 | Cc1ncsc1-c1ccc([C@H](C)NC(=O)[C@@H]2C[C@@H](O)CN2C(=O)[C@@H](NC(=O)CCCCCCC(=O)N2CCN(CC3(C)CCC(c4ccc(Cl)cc4)=C(CN4CCN(c5ccc(C(=O)NS(=O)(=O)c6ccc(N[C@H](CCN7CCOCC7)CSc7ccccc7)c(S(=O)(=O)C(F)(F)F)c6)cc5)CC4)C3)CC2)C(C)(C)C)cc1 (stereo partly drawn) [I-395] | 6.00 to 7.00

From patent publication US20250197387A1, “BCL-XL DEGRADERS AND USES THEREOF” (Kymera Therapeutics, Inc., priority 2021, published 2025)
